Results from patent publication US6503931B1, “Use of 4-amino pyridine for treatment of peripheral neuropathies” (The UAB Research Foundation, priority 1999, dated 2003).

Experiments:
Format in all cases: in vivo, human
[1] = system: subjects with GBS; experiment: Serum laboratories drawn at start and every week of the study
Source text: This was a Phase I double-blind, placebo controlled, crossover, dose escalating study in subjects with GBS similar to those proposed for MS and SCI. An initial trial of ten patients will be randomized to […] of the two treatment sequences (A or B) as shown below.
The study population consists of subjects with GBS injury whose neurological status has been stable for at least eighteen months. Ten subjects will be enrolled.
In addition, serum laboratories were drawn at the beginning of the study and every week of the study. The serum laboratories included glucose, blood urea nitrogen, creatinine, uric acid, calcium, total protein, albumin, phosphate, total bilirubin, cholesterol, LDH, SGOT/AST, alkaline phosphatase, hematocrit, hemoglobin, red blood cell count, platelet count, and white blood cell count with differential.

[2] = system: subjects with GBS; experiment: Motor strength on 0-5 ordinal scale, Phase I double-blind placebo controlled crossover study
Source text: This was a Phase I double-blind, placebo controlled, crossover, dose escalating study in subjects with GBS similar to those proposed for MS and SCI. An initial trial of ten patients will be randomized to […] of the two treatment sequences (A or B) as shown below. The study population consists of subjects with GBS injury whose neurological status has been stable for at least eighteen months. Ten subjects will be enrolled. Motor strength was rated on the traditional 0-5 ordinal scale: 0—absent motor strength 1—trace motor strength 2—can move the specified joint but only with gravity eliminated 3—can move the joint against gravity but not against any opposing force 4—can move the joint against opposing force but the strength is not normal for the person or symmetrical 5—normal motor strength This scale was employed to measure the following motor strength for each of these joint motions on both the right and the left sides: hip flexion, hip adduction, hip abduction, knee flexion, knee extension, ankle dorsi-flexion, ankle plantar flexion, shoulder abduction, elbow extension, elbow flexion, wrist flexion, and wrist extension. [table]

[3] = system: subjects with GBS; experiment: Hand grip strength on hand dynamometer, same study; conditions: hand-held dynamometer; p=0.0243 paired Student's t-test; repeated measures ANOVA p=0.0715; FIG. 3
Description: This was a Phase I double-blind, placebo controlled, crossover, dose escalating study in subjects with GBS similar to those proposed for MS and SCI. An initial trial of ten patients will be randomized to […] of the two treatment sequences (A or B) as shown below. The study population consists of subjects with GBS injury whose neurological status has been stable for at least eighteen months. Ten subjects will be enrolled. Hand grip strength was measured on a hand dynamometer that had been calibrated. Each patient was given three trials separated by thirty second rest periods and the strongest of the three measurements was recorded for each hand. [table]

[4] = serum laboratory, before change
[5] = serum laboratory, statistically significant, not clinically significant

## Nc1ccncc1 [4-aminopyridine]
[1]; before change
  Hematocrit, starting value: 42.7
[1]; glucose, BUN, creatinine, calcium, proteins, bilirubin, cholesterol, LDH, alkaline phosphatase, blood counts etc.
  All other laboratories, change while on the active agent: no significant change
[1]; [4]
  SGOT, starting value: 25.1
  Uric acid, starting value: 6.4
[1]; [5]
  SGOT, after change on the active agent: 27.9
  Uric acid, after change on the active agent: 6.5
[1]; statistically significant, not clinically significant
  Hematocrit, after change on the active agent: 41.6
[2]; 0-5 scale, 10-20 mg bid escalating, p<0.0001, Friedeman's, FIG. 1
  Lower extremity strength, average motor score on the active medication: 3.7
[2]; 0-5 scale, 10-20 mg bid escalating, p=0.0065, Friedeman's, FIG. 2
  Upper extremity strength, average motor score after increase: 3.7
[2]; 0-5 scale, value before increase, FIG. 2
  Upper extremity strength, average motor score, starting value: 3.2
[2]; 0-5 scale, value before increase, seven GBS patients, FIG. 1
  Lower extremity strength, average motor score, starting value: 3.2
[2]; patients on active agent first, motor and grip strength continued to drop for up to two additional weeks after one week washout
  Duration of neural biological effects after stopping the drug: more than two weeks
[3]
  Grip strength, start of study compared to after four weeks of treatment: increased significantly
